Measured values published in US8865684B2, “Morpholin-4-ium 4 methoxyphenyl (morpholino) phosphinodithioate (GYY4137) as a novel vasodilator agent” (National University of Singapore, priority 2009, dated 2014).

Legend:
[1] = H2S release in vitro, DTNB assay; type: physicochemical; settings: phosphate buffer
[2] = GYY4137 133 μmol/kg IV or IP; NaHS 20 μmol/kg IV; up to 180 minutes
Experimental: Blood (0.5 mL) was withdrawn at timed intervals, anticoagulated with heparin (50 U/mL), and centrifuged (2000 g, 20 minutes). […] The zinc acetate assay measures free H2S plus related species including HS^− (hydrosulfide anion) and S2^− (sulfide). Accordingly, results for plasma H2S reported herein indicate the sum total of these species. All experiments on intact animals were undertaken with the approval of the local National University of Singapore Institutional Animal Care and Use Committee.

[3] = system: phenylephrine-precontracted rat aorta; test: tissue or blood
[4] = system: isolated perfused rat kidney; test: Isolated perfused rat kidney, perfusion pressure
Experimental: (§1) For experiments using perfused kidney or heart, Sprague-Dawley rats (male; weight, 230 to 270 g) were anesthetized as described above. […] In kidneys, dose-response curves (volumes <10 μL) were obtained for bolus-injected noradrenaline, angiotensin II, or U46619.

[5] = system: Langendorff-perfused rat heart; test: Langendorff-perfused rat heart; settings: at 30 minutes
Experimental: as §1

anesthetized rat = test: Blood pressure in the anesthetized rat; type: in vivo
[6] = system: rat aortic vascular smooth muscle cells (A10); test: cAMP and cGMP in cultured vascular smooth muscle cells (ELISA); type: cell-based; settings: 100 μmol/L, 45 minutes, isobutyl methylxanthine 300 μmol/L; control 11.3±1.4; n=6
Description: Normal rat aortic vascular smooth muscle cells (A10) were obtained from the American Type Culture Collection (ATCC, Manassas, Va.).

S [NaHS, sodium hydrosulfide]
H2S release in the DTNB assay [1]: instantaneous | plasma H2S (H2S, HS−, S2−) concentration [2]: did not elevate | time course: response to a standard concentration of phenylephrine after drug [3]: did not reduce | vasorelaxant effect after removal of the endothelium or exposure to L-NAME or ODQ [3]: reduced | vasorelaxant effect in presence of KATP channel blockers (glibenclamide or PNU37883A) [3]: reduced | EC50 ([3]; Rattus norvegicus, phenylephrine-precontracted, read-out: EC50, relaxation of aortic rings): 274 ± 22.2 µM | Emax ([3]; Rattus norvegicus, phenylephrine-precontracted, read-out: Emax, relaxation of aortic rings): 63.4 ± 3.3% | approximate EC70 ([3]; concentration used for time course experiments): ~300 µM | transient fall in perfusion pressure ([4]; bolus 10 nmol, n=10): 10.2±2.8 mm Hg | fall in perfusion pressure (biphasic response) ([4]; bolus 5 μmol, n=8): 11.6±4.5 mm Hg | rise in perfusion pressure (biphasic response) ([4]; bolus 5 μmol, n=8): 22.7±6.7 mm Hg | reduction of cardiac contractility (left ventricular diastolic pressure) ([5]; 100 μmol/L): 42.0±7.8% | reduction of heart rate ([5]; NaHS 100 μmol/L): 53.2±6.6% | effect on blood pressure (anesthetized rat; NaHS 2.5 to 20 μmol/kg IV, GYY4137 26.6 to 133 μmol/kg IV): immediate, transient (10 to 30 seconds), and dose-related falls

C1CCC(N=C(NC23CC4CC(CC(C4)C2)C3)N2CCOCC2)CC1.Cl [PNU37883A]
blood pressure after PNU37883A (anesthetized rat; 15 minutes after PNU37883A 26.2 μmol/kg IP, versus 105.6±3.5 before injection, n=5, P=0.053): 117.2±3.7 mm Hg

C=C[C@@]1(C)CC(=O)[C@]2(O)[C@@]3(C)[C@@H](O)CCC(C)(C)[C@@H]3[C@H](O)[C@H](OC(C)=O)[C@@]2(C)O1 [forskolin]
cAMP concentration [6]: 79.6 ± 1.6 nmol/L
